The values that follow come from patent US20250042889A1, “3CLPRO PROTEASE INHIBITOR” (SHANGHAI QILU PHARMACEUTICAL RESEARCH AND DEVELOPMENT …, priority 2021, published 2025).

Each structure is given as a SMILES string.

The target in the assay is SARS-COV-2 3CLpro/Mpro protease (Severe acute respiratory syndrome coronavirus 2 (2019-nCoV) (SARS-CoV-2), UniProt P0DTD1). Kind of assay: Inhibitory effect on SARS-COV-2 3CLpro/Mpro protease by fluorescence resonance energy transfer. The format is biochemical. The following applies: activity intervals A-D, read-out: IC50 (nM), Inhibition on SARS-CoV-2 3CLpro/Mpro protease.
For `Cc1cc(C(=O)N2CC(Nc3c(C(=O)N4CCC5(CCCC5)CC4)cc(Br)cc3[N+](=O)[O-])C(F)(F)C2)cc(=O)[nH]1` (stereo not drawn) [Example 156], the IC50 lay in the range of 10 to 50 nM.

For the compound `O=C(c1cc(Br)cc([N+](=O)[O-])c1N[C@@H]1CCCN(C(=O)c2cncc3ccccc23)C1)N1CCCC1` [Example 39], the IC50 is under 10 nM.

As for `C[C@@H]1CN(C(=O)c2cc(Br)cc([N+](=O)[O-])c2N[C@@H]2CCCN(C(=O)c3cncc4cc(Cl)ccc34)C2)C[C@H](C)N1` [Example 135], the IC50 lay within 10 to 50 nM.

For the compound `CNc1cncc(C(=O)N2CC(Nc3c(C(=O)N4CCN(CC5CC5)CC4)cc(Br)cc3[N+](=O)[O-])C(F)(F)C2)c1` (stereo not drawn) [Example 170], the IC50 was in the range of 10 to 50 nM.

`CNc1cncc(C(=O)N2C[C@H](Nc3c(C(=O)N4C[C@@H](C)O[C@@H](C)C4)cc(Br)cc3[N+](=O)[O-])C[C@H]2C(=O)Nc2ccn(C)n2)c1` [Example 385]: the IC50 was in the range of 10 to 50 nM.

In the case of `CNc1cncc(C(=O)N2C[C@H](Nc3c(C(=O)N4CCN(CCOC)CC4)cc(Br)cc3[N+](=O)[O-])C3(CC3)C2)c1` [Example 153], the IC50 is 10 to 50 nM.

For `CNc1cncc(C(=O)N2C[C@H](Nc3c(C(=O)N4C[C@@H](C)O[C@@H](C)C4)cc(Br)cc3[N+](=O)[O-])C[C@H]2C(=O)N[C@H]2CC[C@@H](OC)C2)c1` [Example 434, (2S,4R)-4-((4-bromo-2-((2R,6S)-2,6-dimethylmorpholin-4-carbonyl)-6-nitrophenyl)amino)-N-((1S,3R)-3-methoxycyclopentyl)-1-(5-(methylamino)nicotinoyl) pyrrolidine-2-formamide], the IC50 fell in the range of 100 to 200 nM.

On to `CNc1cncc(C(=O)N2C[C@H](Nc3c(C(=O)N4C[C@@H](C)O[C@@H](C)C4)cc(Br)cc3[N+](=O)[O-])C[C@H]2C(=O)N2CCOCC2)c1` [Example 376], for which the IC50 lay in the range of 50 to 100 nM.

On to `CNc1cncc(C(=O)N2C[C@H](Nc3c(C(=O)N4C[C@@H](C)O[C@@H](C)C4)cc(Br)cc3[N+](=O)[O-])C[C@H]2C(=O)NC2CNC(=O)C2)c1` (stereo partly drawn) [Example 378], for which the IC50 was 10 to 50 nM.

On to `C[C@@H]1CN(C(=O)c2cc(Br)cc([N+](=O)[O-])c2N[C@@H]2CCCN(C(=O)[C@H]3CNCC(F)(F)C3)C2)C[C@H](C)O1` [Example 325], for which the IC50 is 10 to 50 nM.

For the compound `CNc1cncc(C(=O)N[C@H]2CCCC[C@H]2Nc2c(C(=O)N3CCN(CCOC)CC3)cc(Br)cc2[N+](=O)[O-])c1` [Example 222], the IC50 is 10 to 50 nM.

In the case of `O=C(c1cncc(C2CC2)c1)N1CCC[C@@H](Nc2c(C(=O)N3CCCCC3)cc(Br)cc2[N+](=O)[O-])C1` [Example 45], the IC50 lay in the range of 10 to 50 nM.

Turning to `O=C(c1cncc(Br)c1)N1C[C@H](Nc2c(C(=O)N3CCC(F)(F)CC3)cc(Br)cc2[N+](=O)[O-])C(F)(F)C1` [Example 183], the IC50 fell in the range of 10 to 50 nM.

With `CNc1cncc(C(=O)N2C[C@H](Nc3c(C(=O)N4C[C@@H](C)O[C@@H](C)C4)cc(Br)cc3[N+](=O)[O-])C[C@H]2C(=O)Nc2ccnc(C(F)(F)F)c2)c1` [Example 427, (2S,4R)-4-((4-bromo-2-((2R,6S)-2,6-dimethylmorpholin-4-carbonyl)-6-nitrophenyl)amino)-1-(5-(methylamino)nicotinoyl)-N-(2-(trifluoromethyl)pyridin-4-yl) pyrrolidine-2-formamide], the IC50 lay in the range of 100 to 200 nM.

In the case of `C[C@@H]1CN(C(=O)c2cc(Br)cc([N+](=O)[O-])c2N[C@@H]2CCCN(C(=O)c3cc(=O)[nH]c4ccccc34)C2)C[C@H](C)O1` [Example 133], the IC50 fell in the range of 10 to 50 nM.

Consider `O=C(c1cncc(I)c1)N1C[C@H](Nc2c(C(=O)N3CCCCC3)cc(Br)cc2[N+](=O)[O-])C(F)(F)C1` [Example 209], for which the IC50 was 10 to 50 nM.

Consider `CNc1cncc(C(=O)N2C[C@H](Nc3c(C(=O)N4C[C@@H](C)O[C@@H](C)C4)cc(Br)cc3[N+](=O)[O-])[C@@H](OCc3ccccc3)C2)c1` [Example 455], for which the IC50 was 10 to 50 nM.

Turning to `CNc1cncc(C(=O)N2C[C@H](Nc3c(C(=O)N4C[C@@H](C)O[C@@H](C)C4)cc(Br)cc3[N+](=O)[O-])[C@@H](OCc3ccccn3)C2)c1` [Example 458], the IC50 fell in the range of 10 to 50 nM.
